We go through two molecules from US7662748B2, “Formulations comprising triazoles and alkoxylated amines” (Janssen Pharmaceutica, N.V., priority 2002, dated 2010).

For test [1], the system named is Erisiphe graminis. The experiment in a line: Fungicidal activity versus powdery mildew on wheat plants. The format is in vivo, Erisiphe graminis on winter wheat plants, variety Corvus. As to conditions: day 17, mean of 4 replicates. The method, then: • Test model: Winter wheat plants, variety Corvus, were sprayed with the test solutions till run off. Treated plants were incubated in the glasshouse and dusted with Erisiphe graminis conidia after drying. • Test solutions: • 1) aqueous solutions were prepared by diluting a commercial propiconazole formulation “Tilt® 250 EC” until spray solutions were obtained comprising 8, 16, 20, and 24 ppm of propiconazole. • 2) aqueous solutions were prepared comprising of 40, 80, 160, 320, 640, 1280, and 2560 ppm of N,N′,N′-tris(2-hydroxyethyl)-N-cocoalkyl-1,3-diamino-propane (i.e. ethoduomeen C/13). • 3) to aqueous solutions comprising 8 and 16 ppm of propiconazole an amount of “ethoduomeen C/13” was added yielding test solutions wherein the ratio of propiconazole over “ethoduomeen C/13” is 1/160, 1/80, 1/40, 1/20, 1/10 and 1/5.
The commercial “Tilt® 250 EC” formulation comprises 25% (w/v) of propiconazole dissolved in an aromatic petroleum hydrocarbon liquid mixture.
On day 17 after dusting the wheat plants with Erisiphe graminis the % inhibition of fungal growth was evaluated.

Test [2] relates to Erisiphe graminis. Described as above. As to conditions: propiconazole 0, ethoduomeen C/13 16 ppm a.i.; day 17; mean of 4 replicates. Type of test: in vivo, Erisiphe graminis on winter wheat plants, variety Corvus.

As for `CCCC1COC(Cn2cncn2)(c2ccc(Cl)cc2Cl)O1` (centres unmarked) [propiconazole, 1-[[2-(2,4-dichlorophenyl)-4-propyl-1,3-dioxolan-2-yl]methyl]-1H -1,2,4-triazole], the “% Fungicidal activity versus E. graminis” value in test [1] (propiconazole 8 ppm a.i., ethoduomeen C/13 0) was determined as 25%; in test [1] (propiconazole 16 ppm a.i., ethoduomeen C/13 0), 50%; in test [1] (propiconazole 20 ppm a.i., ethoduomeen C/13 0), 50%; in test [1] (propiconazole 24 ppm a.i., ethoduomeen C/13 0), 80%.
Consider “N,N′,N′-tris(2-hydroxyethyl)-N-cocoalkyl-1,3-diamino-propane [ethoduomeen C/13]”, for which the “% Fungicidal activity versus E. graminis” value in test [1] (propiconazole 0, ethoduomeen C/13 40 ppm a.i.) amounted to 0%; in test [1] (propiconazole 0, ethoduomeen C/13 80 ppm a.i.), 0%; in test [1] (propiconazole 0, ethoduomeen C/13 320 ppm a.i.), 0%; in test [1] (propiconazole 0, ethoduomeen C/13 640 ppm a.i.), 0%; in test [1] (propiconazole 0, ethoduomeen C/13 1280 ppm a.i.), 0%; in test [1] (propiconazole 0, ethoduomeen C/13 2560 ppm a.i.) it was 0%. The “% Fungicidal activity versus E. graminis” value in test [2] is 0%.
